Data reported in the supplement of paper PMC8149375.

What was measured:
Conditions in all cases: treatment: drug + dasatinib (fixed dose, not stated); 5 days
A498 [1] = test: minimum viability across doses, drug + dasatinib, relative to DMSO (fraction); higher = less growth inhibition
Protocol: (§1)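 Primary HTS combination arm: 8 RCC cell lines treated with 8 doses (up to 10 uM) of each library drug plus a fixed dose of dasatinib (dose not stated) for 5 days; viability read by CellTiter-Glo and normalised to DMSO. GI50 was fitted with XLfit, AUC is the area under the dose-response curve, and minimum viability is the lowest fraction of DMSO viability across doses.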

786-O [2] = test: as above
Protocol: as §1

769-P [3] = test: as above
Protocol: as §1

CAKI-1 [4] = test: as above
Protocol: as §1

SN12C [5] = test: as above
Protocol: as §1

TK-10 [6] = test: as above
Protocol: as §1

UO-31 [7] = test: as above
Protocol: as §1

ACHN [8] = test: as above
Protocol: as §1

A498 [9] = test: AUC of dose-response viability curve, drug + dasatinib, normalised to DMSO (arbitrary (AUC of normalised viability)); higher = less growth inhibition
Protocol: as §1

786-O [10] = test: as above
Protocol: as §1

769-P [11] = test: as above
Protocol: as §1

CAKI-1 [12] = test: as above
Protocol: as §1

SN12C [13] = test: as above
Protocol: as §1

TK-10 [14] = test: as above
Protocol: as §1

UO-31 [15] = test: as above
Protocol: as §1

ACHN [16] = test: as above
Protocol: as §1

A498 [17] = test: GI50 of drug in presence of dasatinib; higher = less potent
Protocol: as §1

786-O [18] = test: as above
Protocol: as §1

769-P [19] = test: as above
Protocol: as §1

CAKI-1 [20] = test: as above
Protocol: as §1

SN12C [21] = test: as above
Protocol: as §1

TK-10 [22] = test: as above
Protocol: as §1

UO-31 [23] = test: as above
Protocol: as §1

ACHN [24] = test: as above
Protocol: as §1

Row | Compound | minimum viability across doses (A498 [1]) | minimum viability across doses (786-O [2]) | minimum viability across doses (769-P [3]) | minimum viability across doses (CAKI-1 [4]) | minimum viability across doses (SN12C [5]) | minimum viability across doses (TK-10 [6]) | minimum viability across doses (UO-31 [7]) | minimum viability across doses (ACHN [8]) | AUC of dose-response viability curve (A498 [9]) | AUC of dose-response viability curve (786-O [10]) | AUC of dose-response viability curve (769-P [11]) | AUC of dose-response viability curve (CAKI-1 [12]) | AUC of dose-response viability curve (SN12C [13]) | AUC of dose-response viability curve (TK-10 [14]) | AUC of dose-response viability curve (UO-31 [15]) | AUC of dose-response viability curve (ACHN [16]) | GI50 of drug (A498 [17]) [nM] | GI50 of drug (786-O [18]) [nM] | GI50 of drug (769-P [19]) [nM] | GI50 of drug (CAKI-1 [20]) [nM] | GI50 of drug (SN12C [21]) [nM] | GI50 of drug (TK-10 [22]) [nM] | GI50 of drug (UO-31 [23]) [nM] | GI50 of drug (ACHN [24]) [nM]
1 | COc1cc(OC)c(/C=C/S(=O)(=O)Cc2ccc(OC)c(NCC(=O)[O][Na])c2)c(OC)c1 + Cc1nc(Nc2ncc(C(=O)Nc3c(C)cccc3Cl)s2)cc(N2CCN(CCO)CC2)n1 [dasatinib] | 0.138 | 0.0033 | 0.0648 | 0.0849 | 0.184 | 0.292 | 0.00998 | 0.088 | 1.71 | 0.766 | 1.04 | 0.99 | 1.67 | 1.79 | 1.28 | 1.18 | 78.6 | 18.1 | 31.6 | 15.7 | 163 | 148 | 58.6 | 27.9
2 | COc1cc2ncnc(Nc3cccc(Br)c3)c2cc1OC.Cl + Cc1nc(Nc2ncc(C(=O)Nc3c(C)cccc3Cl)s2)cc(N2CCN(CCO)CC2)n1 [dasatinib] | 0.835 | 0.0127 | 0.157 | 0.237 | 0.547 | 0.124 | 0.0122 | 0.181 | 3.5 | 2.14 | 1.69 | 2.22 | 2.32 | 2.19 | 2.94 | 1.18 | > 10000 | 2860 | 111 | 2490 | > 10000 | 884 | 8520 | 5.77
3 | c1ccc2c(-c3cnn4cc(-c5ccc(N6CCNCC6)cc5)cnc34)ccnc2c1 + Cc1nc(Nc2ncc(C(=O)Nc3c(C)cccc3Cl)s2)cc(N2CCN(CCO)CC2)n1 [dasatinib] | 0.00332 | 0.00229 | 0.00161 | 0.00191 | 0.00173 | 0.00532 | 0.00301 | 0.0011 | 3.1 | 2.41 | 2.03 | 2.19 | 2.19 | 2.51 | 3.73 | 1.77 | 3180 | 2090 | 1340 | 1790 | 1580 | 3060 | 3050 | 999
4 | NCC(=O)Nc1ccc(-n2nc(C(F)(F)F)cc2-c2ccc3c(ccc4ccccc43)c2)cc1 + Cc1nc(Nc2ncc(C(=O)Nc3c(C)cccc3Cl)s2)cc(N2CCN(CCO)CC2)n1 [dasatinib] | 0.0159 | 0.00632 | 0.0325 | 0.00695 | 0.00289 | 0.177 | 0.0147 | 0.0394 | 2.71 | 1.94 | 2.22 | 2.5 | 2.31 | 2.41 | 2.72 | 1.81 | 2100 | 1060 | 2650 | 3650 | 4510 | 2750 | 2580 | 729
5 | O=C(NOCC(O)CO)c1cc(Br)c(F)c(F)c1Nc1ccc(I)cc1F (stereo unspecified) + Cc1nc(Nc2ncc(C(=O)Nc3c(C)cccc3Cl)s2)cc(N2CCN(CCO)CC2)n1 [dasatinib] | 0.344 | 0.327 | 0.278 | 0.133 | 0.357 | 0.404 | 0.164 | 0.279 | 2.39 | 1.75 | 2.06 | 1.91 | 2.1 | 2.23 | 2.59 | 1.45 | 1560 | 149 | 800 | 680 | 1220 | 2540 | 1690 | 26.5
6 | C[C@@H]1CN(CC(=O)Nc2ccc3c(c2)Cc2cccc(-c4cc(=O)cc(N5CCOCC5)o4)c2S3)C[C@H](C)O1 + Cc1nc(Nc2ncc(C(=O)Nc3c(C)cccc3Cl)s2)cc(N2CCN(CCO)CC2)n1 [dasatinib] | 0.771 | 0.282 | 0.373 | 0.165 | 0.511 | 0.589 | 0.213 | 0.381 | 3.33 | 2.51 | 2.37 | 2.15 | 2.48 | 2.69 | 4.18 | 2.04 | > 10000 | 3470 | 5520 | 3790 | > 10000 | > 10000 | 6110 | 4110
7 | O=c1cc(N2CCOCC2)oc2c(-c3cccc4c3sc3ccccc34)cccc12 + Cc1nc(Nc2ncc(C(=O)Nc3c(C)cccc3Cl)s2)cc(N2CCN(CCO)CC2)n1 [dasatinib] | 0.442 | 0.0139 | 0.225 | 0.112 | 0.401 | 0.289 | 0.0435 | 0.139 | 3.4 | 1.89 | 2.36 | 1.96 | 2.38 | 2.52 | 3.36 | 2.09 | 8330 | 763 | 3090 | 847 | > 10000 | 4630 | 2850 | 1800
8 | O=C(NOC[C@H](O)CO)c1ccc(F)c(F)c1Nc1ccc(I)cc1F + Cc1nc(Nc2ncc(C(=O)Nc3c(C)cccc3Cl)s2)cc(N2CCN(CCO)CC2)n1 [dasatinib] | 0.302 | 0.377 | 0.173 | 0.0721 | 0.308 | 0.296 | 0.0632 | 0.3 | 1.85 | 1.85 | 1.42 | 1.51 | 1.75 | 1.91 | 1.6 | 1.36 | 259 | 266 | 74.4 | 148 | 233 | 335 | 141 | 13.5
9 | COc1cccc(-c2cc(=O)c3ccccc3o2)c1N + Cc1nc(Nc2ncc(C(=O)Nc3c(C)cccc3Cl)s2)cc(N2CCN(CCO)CC2)n1 [dasatinib] | 0.908 | 0.541 | 0.645 | 0.612 | 0.658 | 0.655 | 1.08 | 0.511 | 3.37 | 2.58 | 2.48 | 2.27 | 2.49 | 2.57 | 3.99 | 2.01 | > 10000 | > 10000 | > 10000 | > 10000 | > 10000 | > 10000 | > 10000 | > 10000
10 | Cc1cc(Nc2cc(CN3CCOCC3)c3nc(C)c(Cc4ccc(Cl)cc4F)n3n2)[nH]n1 + Cc1nc(Nc2ncc(C(=O)Nc3c(C)cccc3Cl)s2)cc(N2CCN(CCO)CC2)n1 [dasatinib] | 0.194 | 0.00749 | 0.0393 | 0.00448 | 0.105 | 0.0211 | 0.0199 | 0.0702 | 3.43 | 1.65 | 2.24 | 1.73 | 2.1 | 2.43 | 3.83 | 1.75 | 4200 | 262 | 1620 | 410 | 1340 | 1950 | 2610 | 436
11 | CN1CCN(c2ccc([N+](=O)[O-])c3no[n+]([O-])c23)CC1 + Cc1nc(Nc2ncc(C(=O)Nc3c(C)cccc3Cl)s2)cc(N2CCN(CCO)CC2)n1 [dasatinib] | 0.862 | 0.517 | 0.644 | 0.624 | 0.687 | 0.64 | 0.864 | 0.539 | 3.19 | 2.2 | 2.12 | 2.27 | 2.52 | 2.41 | 3.44 | 2.07 | > 10000 | > 10000 | > 10000 | > 10000 | > 10000 | > 10000 | > 10000 | > 10000
12 | CC(C)(C)Cn1c(N)nc2ccc(-c3[nH]c(C(C)(C)C)nc3-c3ccc(F)cc3)nc21.CS(=O)(=O)O.CS(=O)(=O)O + Cc1nc(Nc2ncc(C(=O)Nc3c(C)cccc3Cl)s2)cc(N2CCN(CCO)CC2)n1 [dasatinib] | 0.949 | 0.617 | 0.255 | 0.435 | 0.54 | 0.447 | 0.508 | 0.244 | 3.68 | 2.48 | 2.07 | 2.18 | 2.36 | 2.23 | 3.24 | 1.45 | > 10000 | > 10000 | 1760 | 4370 | > 10000 | 5500 | > 10000 | 24.9
13 | CC(=O)c1c(C)c2cnc(Nc3ccc(N4CCNCC4)cn3)nc2n(C2CCCC2)c1=O.Cl + Cc1nc(Nc2ncc(C(=O)Nc3c(C)cccc3Cl)s2)cc(N2CCN(CCO)CC2)n1 [dasatinib] | 0.566 | 0.174 | 0.0419 | 0.0887 | 0.368 | 0.186 | 0.166 | 0.0923 | 2.92 | 1.87 | 1.8 | 1.71 | 2.1 | 2.06 | 2.58 | 1.32 | > 10000 | 174 | 231 | 179 | 1190 | 523 | 1530 | 19
14 | CCN(CC)CCCCNc1ncc2cc(-c3cc(OC)cc(OC)c3)c(NC(=O)NC(C)(C)C)nc2n1 + Cc1nc(Nc2ncc(C(=O)Nc3c(C)cccc3Cl)s2)cc(N2CCN(CCO)CC2)n1 [dasatinib] | 0.139 | 0.00578 | 0.207 | 0.0229 | 0.0905 | 0.258 | 0.0119 | 0.042 | 2.67 | 2.02 | 2.13 | 1.31 | 1.9 | 2.18 | 2.28 | 1.28 | 3570 | 1210 | 1820 | 80.1 | 366 | 1390 | 696 | 19.8
